Experimental data reported in the NIST ThermoML archive (doi:10.1016/j.jct.2011.12.024).

How the values were obtained:
[1] = 101.33 kPa, Liquid, Vibrating tube method
[2] = refractive index (other wavelength) (dimensionless); settings: 101.33 kPa, Liquid, Wavelength=632.8 nm, Standard Abbe refractometry
[3] = refractive index (other wavelength) (dimensionless); xn = mol fraction of the nth substance listed; settings: 101.33 kPa, Liquid, Wavelength=632.8 nm, Standard Abbe refractometry

COC(=O)CCCCC(=O)OC [dimethyl 1,6-hexanedioate]
Settings | mass density [kg/m3] | refractive index
[1], 281.15 K | 1073.09 | –
[1], 282.15 K | 1072.12 | –
[1], 283.15 K | 1071.14 | –
[1], 284.15 K | 1070.17 | –
[1], 285.15 K | 1069.19 | –
[1], 286.15 K | 1068.21 | –
[1], 287.15 K | 1067.24 | –
[1], 288.15 K | 1066.26 | –
[1], 289.15 K | 1065.29 | –
[1], 290.15 K | 1064.32 | –
[1], 291.15 K | 1063.34 | –
[1], 292.15 K | 1062.37 | –
[1], 293.15 K | 1061.39 | –
[1], 294.15 K | 1060.42 | –
[1], 295.15 K | 1059.45 | –
[1], 296.15 K | 1058.47 | –
[1], 297.15 K | 1057.5 | –
[1], 298.15 K | 1056.52 | –
[1], 299.15 K | 1055.55 | –
[1], 300.15 K | 1054.58 | –
[1], 301.15 K | 1053.6 | –
[1], 302.15 K | 1052.63 | –
[1], 303.15 K | 1051.65 | –
[1], 304.15 K | 1050.68 | –
[1], 305.15 K | 1049.7 | –
[1], 306.15 K | 1048.73 | –
[1], 307.15 K | 1047.75 | –
[1], 308.15 K | 1046.78 | –
[2], 283.48 K | – | 1.4312
[2], 284.37 K | – | 1.4309
[2], 285.28 K | – | 1.4305
[2], 286.1 K | – | 1.4302
[2], 286.92 K | – | 1.4298
[2], 287.65 K | – | 1.4296
[2], 288.49 K | – | 1.4292

CCCCCC [hexane]
[2]
Settings | refractive index
283.72 K | 1.3789
284.52 K | 1.3785
285.35 K | 1.3781
286.21 K | 1.3776
287.1 K | 1.3771
287.94 K | 1.3767
288.71 K | 1.3762

COC(=O)CCCCC(=O)OC [dimethyl 1,6-hexanedioate] + CCCCCC
[3], 289.28 K
Settings | refractive index
x1 = 0.101 | 1.3821
x1 = 0.202 | 1.3884
x1 = 0.301 | 1.3944
x1 = 0.394 | 1.3998
x1 = 0.5 | 1.4056
x1 = 0.599 | 1.4107
x1 = 0.706 | 1.416
x1 = 0.799 | 1.4203
x1 = 0.882 | 1.4239

CCCCCCC [heptane] + COC(=O)CCCCC(=O)OC
[3], x2 = 0
Settings | refractive index
289.62 K | 1.3883
290.68 K | 1.3878
291.71 K | 1.3873
292.7 K | 1.3868
293.74 K | 1.3863
294.71 K | 1.3858
295.77 K | 1.3853
